Experimental data taken from US20040132707A1, “Catecholate beta-lactam conjugates, method for producing the same and the use thereof” (Gruenenthal GmbH, priority 2001, published 2004).
≈ marks a conversion by molar mass, not a printed value.

Columns and labels:
Assay in all cases: Microdilution MIC assay (NCCLS M7-A)
Format in all cases: cell-based
[1] = system: Serratia marcescens SG 621; conditions: strain SG621
Protocol: (§1) The antibacterial activity was tested by a microdilution assay according to National Committee for Clinical Laboratory Standards, 1998, Methods for dilution antimicrobial susceptibility tests for bacteria that grow aerobically, Approved standard M7-A, NCCLS, Villanova, Pa.
(§2) The minimal inhibition concentrations (MICs) were determined for the following bacterial strains: The Gram-negative strains Pseudomonas aeruginosa SG 137, ATCC 27853, Escherichia coli ATCC 25922, Klebsiella pneumoniae ATCC 10031, Stenotrophomonas maltophilia GN 12873, Serratia marcescens SG 621 as well as for the Gram-positive strain Staphylococcus aureus SG 511.

[2] = system: Escherichia coli ATCC 25922; conditions: strain ATCC 25922
Protocol: as §1, §2

[3] = system: Pseudomonas aeruginosa ATCC 27853; conditions: strain ATCC 27853
Protocol: as §1, §2

[4] = system: Pseudomonas aeruginosa SG 137; conditions: strain SG137
Protocol: as §1, §2

[5] = system: Klebsiella pneumoniae ATCC 10031; conditions: strain ATCC10031
Protocol: as §1, §2

[6] = system: Staphylococcus aureus SG 511; conditions: strain SG511
Protocol: as §1, §2

[7] = system: Stenotrophomonas maltophilia GN 12873; conditions: strain GN12873
Protocol: as §1, §2

| SMILES | MIC Serratia marc. SG621 [1] [mg/L] | MIC E. coli ATCC 25922 [2] [mg/L] | MIC Pseudomonas aeruginosa ATCC 27853 [3] [mg/L] | MIC Pseudomonas aeruginosa SG137 [4] [mg/L] | MIC Klebsiella pneumoniae ATCC10031 [5] [mg/L] | MIC Staph. aureus SG511 [6] [mg/L] | MIC Stenotroph. maltoph. GN12873 [7] [mg/L] |
| --- | --- | --- | --- | --- | --- | --- | --- |
| COC(=O)Oc1cccc(C(=O)N(C)CCCN(CC(=O)NC(C(=O)NC2C(=O)N3C2SC(C)(C)C3C(=O)O)c2ccccc2)C(=O)c2cccc(OC(=O)OC)c2OC(=O)OC)c1OC(=O)OC (stereo not shown) [Example 1, N-[3,7-Bis-(2,3-dimethoxycarbonyloxybenzoyl)-3,7-diaza-octanoyl]-ampicillin] | 0.078 (≈ 0.0794 µM) | 0.062 (≈ 0.0631 µM) | 0.031 (≈ 0.0316 µM) | 0.031 (≈ 0.0316 µM) | 0.008 (≈ 0.00815 µM) | 10 (≈ 10.2 µM) | 0.062 (≈ 0.0631 µM) |
| CC(=O)Oc1cccc(C(=O)NCCCCCCN(CCCCCCN(CC(=O)NC(C(=O)NC2C(=O)N3C2SC(C)(C)C3C(=O)O)c2ccccc2)C(=O)c2cccc(OC(C)=O)c2OC(C)=O)C(=O)c2cccc(OC(C)=O)c2OC(C)=O)c1OC(C)=O (stereo not shown) [Example 2, N-[3,10,17-Tris-(2,3-diacetoxybenzoyl)-3,10,17-triaza-heptadecanoyl]-ampicillin] |  | 0.4 (≈ 0.316 µM) | 3.125 (≈ 2.47 µM) | <0.05 | 0.4 (≈ 0.316 µM) | 6.25 (≈ 4.94 µM) |  |
| COC(=O)Oc1cccc(C(=O)N(CCN(CCn2c(=O)oc3c(OC(=O)OC)cccc3c2=O)CCn2c(=O)oc3c(OC(=O)OC)cccc3c2=O)CC(=O)NC(C(=O)NC2C(=O)N3C2SC(C)(C)C3C(=O)O)c2ccccc2)c1OC(=O)OC (stereo not shown) [Example 3, N-[6-Bis[2-(8-methoxycarbonyloxy-benzoxazin-2,4-dion-3-yl)-ethyl]-3-[2,3-di-(methoxycarbonyloxy)-benzoyl]-3,6-diaza-hexanoyl]-ampicillin] | 0.2 (≈ 0.163 µM) | 0.2 (≈ 0.163 µM) | 0.78 (≈ 0.635 µM) | 0.1 (≈ 0.0814 µM) | <0.05 | 12.5 (≈ 10.2 µM) | 0.4 (≈ 0.326 µM) |
| CC(=O)Oc1cccc(C(=O)NCCCCCCN(CCCCCCN(CC(=O)NC(C(=O)NC2C(=O)N3C(C(=O)O)=C(Cl)CSC23)c2ccccc2)C(=O)c2cccc(OC(C)=O)c2OC(C)=O)C(=O)c2cccc(OC(C)=O)c2OC(C)=O)c1OC(C)=O (stereo not shown) [Example 4, N-[3,10,17-Tris-(2,3-diacetoxybenzoyl)-3,10,17-triaza-heptadecanoyl]-cefaclor] |  | 0.2 (≈ 0.156 µM) | 1.56 (≈ 1.22 µM) | 0.2 (≈ 0.156 µM) | <0.05 | 6.25 (≈ 4.87 µM) | 50 (≈ 38.9 µM) |
| CCOC(=O)OC(C)OC(=O)[C@@H]1N2C(=O)[C@@H](NC(=O)[C@H](NC(=O)CN(CCCCCCN(CCCCCCNC(=O)c3cccc(OC(C)=O)c3OC(C)=O)C(=O)c3cccc(OC(C)=O)c3OC(C)=O)C(=O)c3cccc(OC(C)=O)c3OC(C)=O)c3ccccc3)[C@H]2SC1(C)C (stereo partly shown) [Example 5, N-[3,10,17-Tris-(2,3-diacetoxybenzoyl)-3,10,17-triaza-heptadecanoyl]-bacampicillin] | 0.4 (≈ 0.29 µM) | 100 (≈ 72.4 µM) | 25 (≈ 18.1 µM) | 25 (≈ 18.1 µM) | 0.2 (≈ 0.145 µM) |  | 50 (≈ 36.2 µM) |
| CC(=O)Oc1cccc(C(=O)NCCCN(CCCN(CC(=O)NC(C(=O)NC2C(=O)N3C2SC(C)(C)C3C(=O)O)c2ccccc2)C(=O)c2cccc(OC(C)=O)c2OC(C)=O)C(=O)c2cccc(OC(C)=O)c2OC(C)=O)c1OC(C)=O (stereo not shown) [Example 6, N-[3,7,11-Tris-(2,3-diacetoxybenzoyl)-3,7,11-triaza-undecanoyl]-ampicillin] | 0.78 (≈ 0.66 µM) | 1.56 (≈ 1.32 µM) | 1.56 (≈ 1.32 µM) | 0.2 (≈ 0.169 µM) | 0.1 (≈ 0.0847 µM) | 6.25 (≈ 5.29 µM) | 0.4 (≈ 0.339 µM) |
| COC(=O)Oc1cc(Cl)cc(C(=O)N(C)CCCN(CC(=O)NC(C(=O)NC2C(=O)N3C2SC(C)(C)C3C(=O)O)c2ccccc2)C(=O)c2cc(Cl)cc(OC(=O)OC)c2OC(=O)OC)c1OC(=O)OC (stereo not shown) [Example 7, N-[3,7-Bis-(5-chlor-2,3-dimethoxycarbonyloxybenzoyl)-3,7-diaza-octanoyl]-ampicillin] | 0.02 (≈ 0.019 µM) | 0.05 (≈ 0.0476 µM) | 0.1 (≈ 0.0952 µM) | <0.005 | <0.005 | 12.5 (≈ 11.9 µM) | 0.02 (≈ 0.019 µM) |
| COC(=O)Oc1cc(Br)cc(C(=O)N(C)CCCN(CC(=O)NC(C(=O)NC2C(=O)N3C2SC(C)(C)C3C(=O)O)c2ccccc2)C(=O)c2cc(Br)cc(OC(=O)OC)c2OC(=O)OC)c1OC(=O)OC (stereo not shown) [Example 8, N-{3,7-Bis-[5-brom-2,3-di-(methoxycarbonyloxy)-benzoyl]-3,7-diaza-octanoyl}-ampicillin] | 0.02 (≈ 0.0175 µM) | <0.005 | 0.05 (≈ 0.0439 µM) | <0.005 | <0.005 | 6.25 (≈ 5.48 µM) | 0.02 (≈ 0.0175 µM) |
| CC(=O)Oc1cccc(C(=O)N(C)CCCN(CC(=O)N[C@@H](C(=O)N[C@@H]2C(=O)N3[C@@H]2SC(C)(C)[C@@H]3C(=O)O)c2ccccc2)C(=O)c2cccc(OC(C)=O)c2OC(C)=O)c1OC(C)=O [Example 9, N-[3,7-Bis-(2,3-diacetoxybenzoyl)-3,7-diaza-octanoyl]-ampicillin] | 0.05 (≈ 0.0545 µM) | 0.02 (≈ 0.0218 µM) | 0.08 (≈ 0.0872 µM) | 0.005 (≈ 0.00545 µM) | <0.005 | 3.12 (≈ 3.4 µM) | 0.02 (≈ 0.0218 µM) |
| CC(=O)Oc1cccc(C(=O)NCCCCN(CC(=O)N[C@@H](C(=O)N[C@@H]2C(=O)N3[C@@H]2SC(C)(C)[C@@H]3C(=O)O)c2ccccc2)C(=O)c2cccc(OC(C)=O)c2OC(C)=O)c1OC(C)=O [Example 10, N-[3,8-Bis-(2,3-diacetoxybenzoyl)-3,8-diaza-octanoyl]-ampicillin] | <0.005 | <0.005 | 0.05 (≈ 0.0545 µM) | <0.005 | <0.005 | 3.12 (≈ 3.4 µM) | <0.005 |
| CC(=O)Oc1cccc(C(=O)NCCCCN(CC(=O)NC(C(=O)NC2C(=O)N3C2SC(C)(C)C3C(=O)O)c2ccc(O)cc2)C(=O)c2cccc(OC(C)=O)c2OC(C)=O)c1OC(C)=O (stereo not shown) [Example 11, N-[3,8-Bis-(2,3-diacetoxybenzoyl)-3,8-diaza-octanoyl]-amoxicillin] | <0.005 | 0.01 (≈ 0.0107 µM) | 0.1 (≈ 0.107 µM) | 0.01 (≈ 0.0107 µM) | <0.005 | 3.12 (≈ 3.34 µM) | <0.005 |
| COC(=O)Oc1cc(Cl)c(Cl)c(C(=O)N(C)CCCN(CC(=O)NC(C(=O)NC2C(=O)N3C2SC(C)(C)C3C(=O)O)c2ccccc2)C(=O)c2c(Cl)c(Cl)cc(OC(=O)OC)c2OC(=O)OC)c1OC(=O)OC (stereo not shown) [Example 12, N-{3,7-Bis-(2,3-dichlor-5,6-di-methoxycarbonyloxy-benzoyl)-3,7-diaza-octanoyl}-ampicillin] | 0.05 (≈ 0.0447 µM) | 0.02 (≈ 0.0179 µM) | 0.1 (≈ 0.0893 µM) | 0.05 (≈ 0.0447 µM) | <0.005 | 3.12 (≈ 2.79 µM) | 0.05 (≈ 0.0447 µM) |
| CC(=O)Oc1cccc(C(=O)NCCN(CCNC(=O)c2cccc(OC(C)=O)c2OC(C)=O)CCN(CC(=O)NC(C(=O)NC2C(=O)N3C2SC(C)(C)C3C(=O)O)c2ccccc2)C(=O)c2cccc(OC(C)=O)c2OC(C)=O)c1OC(C)=O (stereo not shown) [Example 13, N-{[6-Bis-2,3-(diacetoxybenzoyl)-2-aminoethyl]-3-(2,3-diacetoxybenzoyl)-3,6-diaza-hexanoyl}-ampicillin] | 0.78 (≈ 0.652 µM) | 0.78 (≈ 0.652 µM) | 3.12 (≈ 2.61 µM) | 0.1 (≈ 0.0836 µM) | 0.1 (≈ 0.0836 µM) | 1.56 (≈ 1.3 µM) | 0.2 (≈ 0.167 µM) |
| COC(=O)Oc1cccc(C(=O)NCC(O)CN(CC(=O)NC(C(=O)NC2C(=O)N3C2SC(C)(C)C3C(=O)O)c2ccccc2)C(=O)c2cccc(OC(=O)OC)c2OC(=O)OC)c1OC(=O)OC (stereo not shown) [Example 14, N-[3,7-Bis-(2,3-dimethoxycarbonyloxybenzoyl)-3,7-diaza-5-hydroxy-heptanoyl]-ampicillin] | 1.56 (≈ 1.59 µM) | 6.25 (≈ 6.35 µM) | 1.56 (≈ 1.59 µM) | 0.1 (≈ 0.102 µM) | 0.2 (≈ 0.203 µM) | 0.4 (≈ 0.407 µM) | 0.4 (≈ 0.407 µM) |
